According to ChEMBL document CHEMBL1201862, “PubChem BioAssay data set” (2004):
Calls of active or inactive are those of the source.

Tests used:
[1] = molecular target: G-protein coupled receptor 55 (Homo sapiens, UniProt Q9Y2T6); assay: selective activators of receptor GPR55 – imaging, U2OS cells, beta-arrestin-GFP redistribution, primary screen (AID 1961); format: functional
cells [2] = format: functional, cell-based
cells [3] = format: functional, cell-based; remark: listed apart in the source
HEK293 = assay: EBV LMP1 TES2 canonical NF-kB signalling blockers – cell-based, HEK293, luciferase, cherry-pick, dose response (AID 588343); format: functional; settings: Homo sapiens
[4] = A Cell Based Secondary Assay To Explore Cytotoxicity of Compounds that Sensitize Mycobacterium Tuberculosis to Beta-Lactam Antibiotics.; format: functional
[5] = A High Throughput Confirmatory Assay used to Identify Novel Compounds that Inhibit Mycobacterium Tuberculosis in the absence of Glycerol.; format: functional
[6] = Vero E6 cell cytotoxicity, dose response, cytotoxicity control for non-replicating M. tuberculosis project, secondary assay (AID 492998); format: functional, VeroE6; settings: Vero C1008
[7] = microbe, parasite or virus in culture; format: functional; settings: Mycobacterium tuberculosis
[8] = THP-1 cell cytotoxicity, dose response, cytotoxicity control for non-replicating M. tuberculosis project (AID 489025); format: functional
cells [9] = format: functional
[10] = Luminescence Cell-Based Dose Retest to Confirm Inhibitors of Cancer Stem Cells. [Related pubchem assays (depositor defined):AID2717, AID2721]; format: functional; settings: Homo sapiens
[11] = HepG2 cell cytotoxicity, dose response, cytotoxicity control for non-replicating M. tuberculosis project (AID 489018); format: functional; settings: Mycobacterium tuberculosis
[12] = molecular target: Female germline-specific tumor suppressor gld-1 (Caenorhabditis elegans, UniProt Q17339); assay: blockers of GLD-1/TGE RNA complex formation – biochemical, fluorescence polarization, C. elegans, dose response (AID 2802);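 note: fluorescence polarization of labeled TGE RNA bound by purified gld-1 protein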
Protein Rev = Protein Rev (Human immunodeficiency virus type 1 group M subtype B (isolate HXB2)(HIV-1), UniProt P04618); assay: blockers of HIV Rev/RRE RNA complex – biochemical, fluorescence polarization, HIV-1, dose response (AID 434976); design: species or system Human immunodeficiency virus 1
Cytochrome P450 2C9 = Cytochrome P450 2C9 (Homo sapiens, UniProt P11712)
[13] = molecular target: T1, Neuropeptide Y receptor type 1 (Homo sapiens, UniProt P25929); assay: IC50 of human NPY-Y1 blockers – cell-based, dose response (AID 1277); format: functional
T1 sequence (P25929 whole entry): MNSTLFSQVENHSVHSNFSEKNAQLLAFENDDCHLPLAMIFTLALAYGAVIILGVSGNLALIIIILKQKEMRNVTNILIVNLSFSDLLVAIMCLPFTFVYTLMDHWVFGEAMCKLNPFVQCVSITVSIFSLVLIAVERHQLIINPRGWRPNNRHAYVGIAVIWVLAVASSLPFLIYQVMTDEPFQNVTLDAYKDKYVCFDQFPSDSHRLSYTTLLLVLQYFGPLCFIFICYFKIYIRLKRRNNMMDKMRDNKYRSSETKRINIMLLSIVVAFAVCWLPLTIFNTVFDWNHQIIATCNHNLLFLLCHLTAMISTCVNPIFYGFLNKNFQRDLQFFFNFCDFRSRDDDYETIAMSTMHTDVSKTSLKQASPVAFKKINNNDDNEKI

[14] = molecular target: T2, Neuropeptide Y receptor type 2 (Homo sapiens, UniProt P49146); assay: IC50 for human NPY-Y2 blockade – cell-based, counter-screen for NPY-Y1 antagonist project, dose response (AID 1278); format: functional
T2 sequence (P49146 whole entry): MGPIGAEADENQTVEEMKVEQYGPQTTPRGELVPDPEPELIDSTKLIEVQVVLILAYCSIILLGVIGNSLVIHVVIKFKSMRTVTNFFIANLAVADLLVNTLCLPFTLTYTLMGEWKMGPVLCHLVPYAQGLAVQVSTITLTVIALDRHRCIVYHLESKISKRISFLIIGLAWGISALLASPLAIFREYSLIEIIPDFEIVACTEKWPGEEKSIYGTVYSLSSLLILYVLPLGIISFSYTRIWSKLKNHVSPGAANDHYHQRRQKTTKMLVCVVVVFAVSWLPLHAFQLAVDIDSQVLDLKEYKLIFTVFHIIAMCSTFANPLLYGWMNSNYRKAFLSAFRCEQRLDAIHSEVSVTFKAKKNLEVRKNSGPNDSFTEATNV

Genome polyprotein = Genome polyprotein (dengue virus type 2, UniProt P29990); assay: flavivirus cap methylation enzyme inhibition – biochemical, confirmation dose response, primary screen (AID 588689); format: functional
Hexokinase HKDC1 = Hexokinase HKDC1 (Homo sapiens, UniProt Q2TB90); assay: inhibition of HKDC1 glucose phosphorylation – biochemical, W721R variant, dose response (AID 504729); format: functional
[15] = molecular target: T3, Mannose-6-phosphate isomerase (Homo sapiens, UniProt P34949); assay: MPI enzyme activity inhibition – biochemical, fluorescence intensity, coupled assay, primary screen (AID 1209)
T3 sequence (P34949 whole entry): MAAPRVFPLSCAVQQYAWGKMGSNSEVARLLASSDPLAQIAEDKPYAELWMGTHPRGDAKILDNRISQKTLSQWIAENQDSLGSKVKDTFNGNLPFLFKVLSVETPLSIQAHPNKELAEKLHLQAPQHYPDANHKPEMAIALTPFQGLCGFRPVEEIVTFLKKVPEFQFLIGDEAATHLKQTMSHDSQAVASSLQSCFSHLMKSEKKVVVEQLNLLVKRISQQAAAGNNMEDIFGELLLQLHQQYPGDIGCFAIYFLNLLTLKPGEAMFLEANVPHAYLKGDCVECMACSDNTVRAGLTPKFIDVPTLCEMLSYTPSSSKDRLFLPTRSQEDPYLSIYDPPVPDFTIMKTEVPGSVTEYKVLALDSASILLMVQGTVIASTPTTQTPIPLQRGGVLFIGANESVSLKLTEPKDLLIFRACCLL

[16] = molecular target: T3, Mannose-6-phosphate isomerase; assay: MPI inhibition at elevated mannose 6-phosphate – biochemical, fluorescence intensity, high mannose 6-phosphate, primary screen (AID 1220)
[17] = molecular target: T4, Voltage-gated N-type calcium channel alpha-1B subunit/Amyloid beta A4 precursor protein-binding family A member 1 (Homo sapiens, UniProt Q00975+Q02410); format: protein assay
[18] = molecular target: Glucose-6-phosphate 1-dehydrogenase (Homo sapiens, UniProt P11413); assay: inhibition of Homo sapiens G6PD, dose series – biochemical, fluorescence, selectivity assay for P. falciparum G6PD inhibitor project, dose response (AID 504792); format: functional
[19] = molecular target: Eukaryotic translation initiation factor 4E (Mus musculus, UniProt P63073); assay: blockers of eIF4G binding by eIF4E – biochemical, TR-FRET, dose response (AID 855); format: functional;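 note: potency for disrupting eIF4E binding to eIF4GI seen as loss of FRET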
[20] = molecular target: T4, Voltage-gated N-type calcium channel alpha-1B subunit/Amyloid beta A4 precursor protein-binding family A member 1; format: protein assay; remark: listed apart in the source
[21] = viability of uninfected HEp-2 cells – cell-based, HTS, cytotoxicity control for RSV inhibitor project, dose response (AID 2410); format: functional; settings: human respiratory syncytial virus
cells [22] = assay: cells

T4 sequence (Q00975 whole entry): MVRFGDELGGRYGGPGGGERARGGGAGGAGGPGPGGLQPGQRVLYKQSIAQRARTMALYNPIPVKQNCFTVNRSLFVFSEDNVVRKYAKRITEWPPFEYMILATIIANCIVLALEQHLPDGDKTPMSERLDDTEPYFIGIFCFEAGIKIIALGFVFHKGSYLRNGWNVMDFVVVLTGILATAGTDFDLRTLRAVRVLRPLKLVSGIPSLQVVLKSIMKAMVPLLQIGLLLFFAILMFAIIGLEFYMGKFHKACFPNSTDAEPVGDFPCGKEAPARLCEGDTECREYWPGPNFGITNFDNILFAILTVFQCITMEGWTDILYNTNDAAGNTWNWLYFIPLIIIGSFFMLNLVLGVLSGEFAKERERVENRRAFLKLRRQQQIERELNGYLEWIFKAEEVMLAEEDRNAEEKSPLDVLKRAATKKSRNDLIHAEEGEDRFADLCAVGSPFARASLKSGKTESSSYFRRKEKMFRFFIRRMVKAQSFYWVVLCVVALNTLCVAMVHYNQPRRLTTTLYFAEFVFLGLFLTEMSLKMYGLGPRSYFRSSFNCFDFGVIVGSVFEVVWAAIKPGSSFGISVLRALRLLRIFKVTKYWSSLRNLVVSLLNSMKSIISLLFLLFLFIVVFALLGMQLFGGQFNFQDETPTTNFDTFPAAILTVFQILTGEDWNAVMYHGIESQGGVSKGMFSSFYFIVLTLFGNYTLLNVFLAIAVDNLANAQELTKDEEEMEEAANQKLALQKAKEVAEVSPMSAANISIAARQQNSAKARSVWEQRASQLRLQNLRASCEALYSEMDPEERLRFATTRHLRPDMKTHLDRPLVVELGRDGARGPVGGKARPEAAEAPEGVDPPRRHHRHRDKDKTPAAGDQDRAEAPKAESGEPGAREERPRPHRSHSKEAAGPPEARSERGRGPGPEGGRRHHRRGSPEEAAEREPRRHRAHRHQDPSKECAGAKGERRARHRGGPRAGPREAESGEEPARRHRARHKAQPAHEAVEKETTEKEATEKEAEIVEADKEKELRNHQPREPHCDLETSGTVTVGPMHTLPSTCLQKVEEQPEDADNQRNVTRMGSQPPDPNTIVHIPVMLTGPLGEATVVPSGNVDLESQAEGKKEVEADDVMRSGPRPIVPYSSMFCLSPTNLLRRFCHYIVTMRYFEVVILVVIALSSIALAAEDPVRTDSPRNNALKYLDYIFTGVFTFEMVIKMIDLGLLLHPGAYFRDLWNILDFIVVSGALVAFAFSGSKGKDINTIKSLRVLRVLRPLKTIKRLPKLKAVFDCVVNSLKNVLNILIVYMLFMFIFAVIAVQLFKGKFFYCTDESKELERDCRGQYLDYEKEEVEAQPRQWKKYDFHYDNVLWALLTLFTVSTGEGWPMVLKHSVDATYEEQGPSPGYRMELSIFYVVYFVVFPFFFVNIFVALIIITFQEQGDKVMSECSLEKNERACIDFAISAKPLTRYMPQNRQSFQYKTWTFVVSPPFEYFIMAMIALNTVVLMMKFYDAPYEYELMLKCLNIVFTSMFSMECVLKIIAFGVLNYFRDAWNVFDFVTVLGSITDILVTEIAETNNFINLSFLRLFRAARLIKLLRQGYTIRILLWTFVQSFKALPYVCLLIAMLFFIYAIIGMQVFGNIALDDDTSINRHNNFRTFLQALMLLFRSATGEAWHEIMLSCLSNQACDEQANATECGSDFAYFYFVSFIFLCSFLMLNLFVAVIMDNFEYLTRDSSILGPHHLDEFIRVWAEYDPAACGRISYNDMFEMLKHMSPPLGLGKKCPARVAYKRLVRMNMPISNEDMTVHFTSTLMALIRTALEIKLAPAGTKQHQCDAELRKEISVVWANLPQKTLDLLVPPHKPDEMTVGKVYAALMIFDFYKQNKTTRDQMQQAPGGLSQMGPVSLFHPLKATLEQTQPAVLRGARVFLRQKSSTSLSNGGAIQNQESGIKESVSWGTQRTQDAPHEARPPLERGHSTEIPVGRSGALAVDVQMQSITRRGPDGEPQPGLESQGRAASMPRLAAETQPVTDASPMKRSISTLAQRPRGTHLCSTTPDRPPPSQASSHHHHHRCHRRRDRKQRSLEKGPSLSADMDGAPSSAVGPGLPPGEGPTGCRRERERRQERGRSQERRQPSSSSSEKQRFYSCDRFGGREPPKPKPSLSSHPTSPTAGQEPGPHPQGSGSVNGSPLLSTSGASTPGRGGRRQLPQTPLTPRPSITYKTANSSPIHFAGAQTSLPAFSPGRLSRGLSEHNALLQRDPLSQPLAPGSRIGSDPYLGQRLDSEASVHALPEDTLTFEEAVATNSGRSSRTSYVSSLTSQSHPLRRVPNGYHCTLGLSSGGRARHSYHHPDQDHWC
T4 sequence (Q02410 whole entry): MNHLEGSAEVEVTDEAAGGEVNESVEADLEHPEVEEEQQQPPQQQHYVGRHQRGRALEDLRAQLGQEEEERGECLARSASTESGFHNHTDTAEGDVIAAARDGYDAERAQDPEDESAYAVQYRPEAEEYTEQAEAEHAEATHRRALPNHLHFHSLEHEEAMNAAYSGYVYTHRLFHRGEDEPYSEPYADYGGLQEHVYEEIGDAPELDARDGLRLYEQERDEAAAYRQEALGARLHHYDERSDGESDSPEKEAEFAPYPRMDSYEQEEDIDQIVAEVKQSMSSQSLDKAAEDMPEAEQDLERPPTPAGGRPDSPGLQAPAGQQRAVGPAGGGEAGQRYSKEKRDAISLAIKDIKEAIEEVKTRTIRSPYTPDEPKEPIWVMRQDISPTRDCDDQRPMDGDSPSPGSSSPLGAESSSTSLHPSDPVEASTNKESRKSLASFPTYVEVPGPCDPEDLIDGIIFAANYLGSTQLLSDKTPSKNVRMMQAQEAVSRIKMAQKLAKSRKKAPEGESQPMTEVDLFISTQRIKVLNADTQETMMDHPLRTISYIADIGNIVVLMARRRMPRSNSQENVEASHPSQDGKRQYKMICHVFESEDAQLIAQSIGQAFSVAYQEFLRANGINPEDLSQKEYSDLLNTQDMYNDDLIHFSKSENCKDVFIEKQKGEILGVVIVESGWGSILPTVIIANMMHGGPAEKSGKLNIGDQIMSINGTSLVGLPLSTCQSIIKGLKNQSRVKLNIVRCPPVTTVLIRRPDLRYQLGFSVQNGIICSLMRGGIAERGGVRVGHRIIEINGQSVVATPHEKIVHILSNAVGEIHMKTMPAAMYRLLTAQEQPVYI
G-protein coupled receptor 55, sequence (Q9Y2T6 whole entry): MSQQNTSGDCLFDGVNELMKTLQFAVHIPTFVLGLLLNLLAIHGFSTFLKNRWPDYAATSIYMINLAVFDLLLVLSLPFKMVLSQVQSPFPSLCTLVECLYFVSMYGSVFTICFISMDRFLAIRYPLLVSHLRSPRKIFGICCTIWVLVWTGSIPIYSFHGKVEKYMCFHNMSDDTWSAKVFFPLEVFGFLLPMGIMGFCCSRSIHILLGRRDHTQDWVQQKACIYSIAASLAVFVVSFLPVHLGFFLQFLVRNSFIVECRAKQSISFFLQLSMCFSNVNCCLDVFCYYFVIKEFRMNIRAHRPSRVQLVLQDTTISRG
Protein Rev, sequence (P04618 whole entry): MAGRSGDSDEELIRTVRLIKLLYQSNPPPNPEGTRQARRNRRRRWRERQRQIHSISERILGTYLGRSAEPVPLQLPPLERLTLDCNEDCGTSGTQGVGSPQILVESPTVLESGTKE
Eukaryotic translation initiation factor 4E, sequence (P63073 whole entry): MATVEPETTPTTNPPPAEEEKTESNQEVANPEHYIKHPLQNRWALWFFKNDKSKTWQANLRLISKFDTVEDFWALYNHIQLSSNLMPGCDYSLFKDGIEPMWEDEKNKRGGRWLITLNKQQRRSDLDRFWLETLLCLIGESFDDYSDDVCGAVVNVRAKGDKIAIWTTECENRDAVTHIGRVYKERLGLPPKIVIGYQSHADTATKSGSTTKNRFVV
Female germline-specific tumor suppressor gld-1, sequence (Q17339 whole entry): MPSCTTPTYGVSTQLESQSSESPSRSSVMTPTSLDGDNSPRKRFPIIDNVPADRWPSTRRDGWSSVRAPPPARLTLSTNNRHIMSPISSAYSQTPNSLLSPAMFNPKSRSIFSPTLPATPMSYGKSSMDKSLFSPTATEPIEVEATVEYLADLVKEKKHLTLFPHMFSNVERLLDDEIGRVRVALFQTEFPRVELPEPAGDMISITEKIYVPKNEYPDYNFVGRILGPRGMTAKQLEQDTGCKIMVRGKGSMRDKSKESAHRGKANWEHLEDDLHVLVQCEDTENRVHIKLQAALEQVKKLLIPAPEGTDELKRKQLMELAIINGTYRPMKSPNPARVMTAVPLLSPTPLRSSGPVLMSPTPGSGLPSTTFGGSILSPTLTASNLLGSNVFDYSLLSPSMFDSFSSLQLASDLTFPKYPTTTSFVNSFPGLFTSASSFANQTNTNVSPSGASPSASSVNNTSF
Cytochrome P450 2C9, sequence (P11712 whole entry): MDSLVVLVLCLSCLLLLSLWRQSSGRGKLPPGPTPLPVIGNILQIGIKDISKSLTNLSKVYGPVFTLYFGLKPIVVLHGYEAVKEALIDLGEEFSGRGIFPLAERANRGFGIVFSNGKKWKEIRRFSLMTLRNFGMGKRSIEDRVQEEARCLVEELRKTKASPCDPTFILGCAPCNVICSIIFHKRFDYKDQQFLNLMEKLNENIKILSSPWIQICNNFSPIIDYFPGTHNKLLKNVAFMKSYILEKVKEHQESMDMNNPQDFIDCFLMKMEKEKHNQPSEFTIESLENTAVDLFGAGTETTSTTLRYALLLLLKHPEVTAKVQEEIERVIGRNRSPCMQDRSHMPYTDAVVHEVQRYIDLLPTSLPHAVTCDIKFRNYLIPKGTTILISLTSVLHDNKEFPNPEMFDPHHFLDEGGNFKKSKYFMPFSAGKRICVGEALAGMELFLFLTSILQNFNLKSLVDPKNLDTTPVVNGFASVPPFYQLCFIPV

CC(=O)c1c(C(C)=O)c(C)n(Cc2ccc3c(c2)OCO3)c1C
EC50 [1]: > 32 µM (inactive)

COc1cccc(/C=N/NC(=O)CSCC(=O)Nc2ccccc2)c1O
EC50 (cells [2]): 12.7 µM (active) | EC50 (cells [3]): > 350 µM (not active) | AC50 (HEK293): 25.4 µM (active) | CC50 [4]: 21.3 µM (active)

Cc1ccc(OCC(=O)N/N=C/c2cn(C)c3ccccc23)cc1
CC50 [4]: > 40 µM (active)

CC(C)(C)OC(=O)NN=C(S)NC1CCCCC1
IC50 [5]: > 100 µM (active)

CN1CCN(C2Cc3ccccc3Sc3cc(C(F)(F)F)ccc32)CC1 (stereo unspecified)
CC50 [6]: > 20 µM (active) | CC50 [7]: 17.9 µM (active) | CC50 [8]: 17.4 µM (active) | IC50 (cells [9]): 14.9 µM (active) | AC50 [10]: 6.72 µM (active) | CC50 [11]: > 20 µM (active)

CCCCn1c(=O)[nH]c2nc3cc(NC(C)=O)ccc3nc2c1=O
IC50 [12]: 0.84 µM (active) | IC50 (Protein Rev): 6.5 µM (active)

CC1=NN(c2ccccc2)C(=O)/C1=C\c1c(C)[nH]n(-c2ccccc2)c1=O
AC50 (Cytochrome P450 2C9): 2.51 µM (inconclusive) | IC50 [5]: > 100 µM (active)

CCOC(=O)c1c(CSc2ccccc2)n(C)c2ccc(O)c(CN3CCOCC3)c12
IC50 [13]: 1.94 µM (active) | IC50 [14]: > 35 µM (not active)

CCC(c1ccccc1)C(CC)c1cc(O)c(O)c(O)c1 (stereo unspecified)
IC50 (Genome polyprotein): 39.4 µM (active) | IC50 (Hexokinase HKDC1): 18.3 µM (active)

Cc1cc(C)n(-c2nnc(N3CCN(c4ccc(F)cc4)CC3)nn2)n1
IC50 [15]: > 50 µM (not active) | IC50 [16]: > 50 µM (not active)

COc1cc(/N=c2\ssnc2Cl)cc(OC)c1
IC50 [17]: 6.42 µM (active) | IC50 [15]: 19.6 µM (active) | IC50 [18]: > 80 µM (inactive) | IC50 [19]: 22.6 µM (active) | IC50 [20]: 0.738 µM (active) | IC50 (cells [9]): 39.2 µM (active)

CCOc1ccc2nc(NC(=O)C3(C)CC3(Br)Br)sc2c1 (stereo unspecified)
CC50 [21]: 19.4 µM (active) | IC50 (cells [22]): 47.8 µM (active)
